The values that follow are results of earlier work, collected in US20240077492A1, “ARRAY-BASED PEPTIDE LIBRARIES FOR THERAPEUTIC ANTIBODY CHARACTERIZATION” (Cowper Sciences Inc., priority 2016, published 2024).

The conditions of the series: background statement.

Take “Remicade: one of the most prescribed antibody therapeutics”: the “effective in fraction of the patient population” value is 25%.
